Experimental data as given in ChEMBL document CHEMBL4831516, “Development of Membrane-Active Honokiol/Magnolol Amphiphiles as Potent Antibacterial Agents against Methicillin-Resistant Staphylococcus aureus (MRSA)” (J Med Chem, 2021).
≈ marks a conversion by molar mass, not a printed value.

What was measured:
[1] = test system: Salmonella enterica; assay: Antibacterial activity against Salmonella enterica 8389 assessed as inhibition of visible growth incubated for 16 to 18 hrs by CLSI method; assay type: functional; settings: time 16-18 hrs, read-out: MIC100
[2] = test system: Micrococcus luteus; assay: Antibacterial activity against Micrococcus luteus assessed as inhibition of visible growth incubated for 16 to 18 hrs by CLSI method; assay type: functional; settings: time 16-18 hrs, read-out: MIC100
[3] = test system: Staphylococcus aureus; assay: Antibacterial activity against methicillin-resistant Staphylococcus aureus clinical isolate M-14 assessed as inhibition of visible growth incubated for 16 to 18 hrs by CLSI method; assay type: functional; settings: time 16-18 hrs, read-out: MIC100
[4] = Selectivity index, HC50 for hemolytic activity in sheep RBC to MIC for antibacterial activity against Staphylococcus aureus ATCC29213; assay type: toxicity; settings: sheep red blood cells (erythrocytes), read-out: Selectivity Index
[5] = test system: Staphylococcus aureus; assay: Antibacterial activity against methicillin-resistant Staphylococcus aureus clinical isolate M-18 assessed as inhibition of visible growth incubated for 16 to 18 hrs by CLSI method; assay type: functional; settings: time 16-18 hrs, read-out: MIC100
[6] = test system: Staphylococcus aureus; assay: Antibacterial activity against methicillin-resistant Staphylococcus aureus clinical isolate M-19 assessed as inhibition of visible growth incubated for 16 to 18 hrs by CLSI method; assay type: functional; settings: time 16-18 hrs, read-out: MIC100
[7] = test system: Bacillus subtilis; assay: Antibacterial activity against Bacillus subtilis assessed as inhibition of visible growth incubated for 16 to 18 hrs by CLSI method; assay type: functional; settings: time 16-18 hrs, read-out: MIC100
[8] = test system: Staphylococcus aureus; assay: Antibacterial activity against methicillin-resistant Staphylococcus aureus clinical isolate M-13 assessed as inhibition of visible growth incubated for 16 to 18 hrs by CLSI method; assay type: functional; settings: time 16-18 hrs, read-out: MIC100
[9] = test system: Staphylococcus aureus; assay: Antibacterial activity against methicillin-resistant Staphylococcus aureus clinical isolate M-15 assessed as inhibition of visible growth incubated for 16 to 18 hrs by CLSI method; assay type: functional; settings: time 16-18 hrs, read-out: MIC100
[10] = test system: Salmonella enterica; assay: Antibacterial activity against Salmonella enterica 349812 assessed as inhibition of visible growth incubated for 16 to 18 hrs by CLSI method; assay type: functional; settings: time 16-18 hrs, read-out: MIC100
[11] = test system: Escherichia coli; assay: Antibacterial activity against Escherichia coli ATCC25922 assessed as inhibition of visible growth incubated for 16 to 18 hrs by CLSI method; assay type: functional; settings: time 16-18 hrs, read-out: MIC100
[12] = test system: Staphylococcus aureus; assay: Antibacterial activity against methicillin-resistant Staphylococcus aureus clinical isolate M-16 assessed as inhibition of visible growth incubated for 16 to 18 hrs by CLSI method; assay type: functional; settings: time 16-18 hrs, read-out: MIC100
[13] = test system: Stenotrophomonas maltophilia; assay: Antibacterial activity against Stenotrophomonas maltophilia assessed as inhibition of visible growth incubated for 16 to 18 hrs by CLSI method; assay type: functional; settings: time 16-18 hrs, read-out: MIC100
[14] = test system: Staphylococcus aureus; assay: Antibacterial activity against methicillin-resistant Staphylococcus aureus clinical isolate M-12 assessed as inhibition of visible growth incubated for 16 to 18 hrs by CLSI method; assay type: functional; settings: time 16-18 hrs, read-out: MIC100
[15] = test system: Staphylococcus aureus; assay: Antibacterial activity against methicillin-resistant Staphylococcus aureus clinical isolate M-20 assessed as inhibition of visible growth incubated for 16 to 18 hrs by CLSI method; assay type: functional; settings: time 16-18 hrs, read-out: MIC100
[16] = Hemolytic activity in sheep RBC assessed as hemolysis incubated for 1 hr; assay type: ADME, cell-based, Ovis aries, Erythrocyte; settings: sheep red blood cells (erythrocytes)
[17] = test system: Enterococcus faecalis; assay: Antibacterial activity against Enterococcus faecalis ATCC29212 assessed as inhibition of visible growth incubated for 16 to 18 hrs by CLSI method; assay type: functional; settings: time 16-18 hrs, read-out: MIC100
[18] = test system: Staphylococcus aureus; assay: Antibacterial activity against methicillin-resistant Staphylococcus aureus clinical isolate M-17 assessed as inhibition of visible growth incubated for 16 to 18 hrs by CLSI method; assay type: functional; settings: time 16-18 hrs, read-out: MIC100
[19] = test system: Staphylococcus aureus; assay: Antibacterial activity against methicillin-resistant Staphylococcus aureus clinical isolate M-11 assessed as inhibition of visible growth incubated for 16 to 18 hrs by CLSI method; assay type: functional; settings: time 16-18 hrs, read-out: MIC100
[20] = test system: Staphylococcus aureus; assay: Antibacterial activity against Staphylococcus aureus ATCC29213 assessed as inhibition of visible growth incubated for 16 to 18 hrs by CLSI method; assay type: functional; settings: time 16-18 hrs, read-out: MIC100

C=CCc1ccc(OCCCC[N+](C)(C)CC(=O)N(CCCC)CCCC)c(-c2ccc(OCCCC[N+](C)(C)CC(=O)N(CCCC)CCCC)c(CC=C)c2)c1.[Br-].[Br-]
MIC [1]: 16 µg/mL
MIC [2]: 4 µg/mL
MIC [3]: 8 µg/mL
selectivity ratio [4]: 316
MIC [5]: 8 µg/mL
MIC [6]: 4 µg/mL
MIC [7]: 2 µg/mL
MIC [8]: 8 µg/mL
MIC [9]: 8 µg/mL
MIC [10]: 8 µg/mL
MIC [11]: 8 µg/mL
MIC [12]: 16 µg/mL
MIC [13]: 16 µg/mL
MIC [14]: 8 µg/mL
MIC [15]: 8 µg/mL
HC50 at 1 h [16]: 633 µg/mL
MIC [17]: 4 µg/mL
MIC [18]: 8 µg/mL
MIC [19]: 4 µg/mL
MIC [20]: 2 µg/mL

C=CCc1ccc(O)c(-c2cc(CC=C)ccc2OCCC[N+](C)(C)CC(=O)N(CCCC)CCCC)c1.[Br-]
MIC [1]: 16 µg/mL
MIC [2]: 0.5 µg/mL
MIC [3]: 4 µg/mL
selectivity ratio [4]: 382
MIC [5]: 2 µg/mL
MIC [6]: 1 µg/mL
MIC [7]: 0.5 µg/mL
MIC [8]: 2 µg/mL
MIC [9]: 2 µg/mL
MIC [10]: 8 µg/mL
MIC [11]: 8 µg/mL
MIC [12]: 2 µg/mL
MIC [13]: 8 µg/mL
MIC [14]: 4 µg/mL
MIC [15]: 2 µg/mL
HC50 at 1 h [16]: 764 µg/mL
MIC [17]: 2 µg/mL
MIC [18]: 2 µg/mL
MIC [19]: 4 µg/mL
MIC [20]: 2 µg/mL

C=CCc1ccc(O)c(-c2ccc(O)c(CC=C)c2)c1 [HONOKIOL]
MIC [1]: > 128 µg/mL
MIC [2]: 32 µg/mL (≈ 120 µM)
MIC [7]: 32 µg/mL (≈ 120 µM)
MIC [10]: > 128 µg/mL
MIC [11]: > 128 µg/mL
MIC [13]: > 128 µg/mL
HC50 at 1 h [16]: 534 µg/mL
MIC [17]: 64 µg/mL (≈ 240 µM)
MIC [20]: 64 µg/mL (≈ 240 µM)

CN(C)c1cc(NC(=O)CNC(C)(C)C)c(O)c2c1C[C@H]1C[C@H]3[C@H](N(C)C)C(O)=C(C(N)=O)C(=O)[C@@]3(O)C(O)=C1C2=O [TIGECYCLINE]
MIC [3]: 1 µg/mL (≈ 1.71 µM)
MIC [5]: 0.25 µg/mL (≈ 0.427 µM)
MIC [6]: 0.5 µg/mL (≈ 0.854 µM)
MIC [8]: 1 µg/mL (≈ 1.71 µM)
MIC [9]: 0.5 µg/mL (≈ 0.854 µM)
MIC [12]: 0.25 µg/mL (≈ 0.427 µM)
MIC [14]: 1 µg/mL (≈ 1.71 µM)
MIC [15]: 0.5 µg/mL (≈ 0.854 µM)
MIC [18]: 0.5 µg/mL (≈ 0.854 µM)
MIC [19]: 0.5 µg/mL (≈ 0.854 µM)
